In PMC2865582 (Journal of medicinal chemistry, 2010):

Biological target: T1, human GVIA iPLA2 (Homo sapiens, UniProt O60733)
T1 sequence (O60733 1-806): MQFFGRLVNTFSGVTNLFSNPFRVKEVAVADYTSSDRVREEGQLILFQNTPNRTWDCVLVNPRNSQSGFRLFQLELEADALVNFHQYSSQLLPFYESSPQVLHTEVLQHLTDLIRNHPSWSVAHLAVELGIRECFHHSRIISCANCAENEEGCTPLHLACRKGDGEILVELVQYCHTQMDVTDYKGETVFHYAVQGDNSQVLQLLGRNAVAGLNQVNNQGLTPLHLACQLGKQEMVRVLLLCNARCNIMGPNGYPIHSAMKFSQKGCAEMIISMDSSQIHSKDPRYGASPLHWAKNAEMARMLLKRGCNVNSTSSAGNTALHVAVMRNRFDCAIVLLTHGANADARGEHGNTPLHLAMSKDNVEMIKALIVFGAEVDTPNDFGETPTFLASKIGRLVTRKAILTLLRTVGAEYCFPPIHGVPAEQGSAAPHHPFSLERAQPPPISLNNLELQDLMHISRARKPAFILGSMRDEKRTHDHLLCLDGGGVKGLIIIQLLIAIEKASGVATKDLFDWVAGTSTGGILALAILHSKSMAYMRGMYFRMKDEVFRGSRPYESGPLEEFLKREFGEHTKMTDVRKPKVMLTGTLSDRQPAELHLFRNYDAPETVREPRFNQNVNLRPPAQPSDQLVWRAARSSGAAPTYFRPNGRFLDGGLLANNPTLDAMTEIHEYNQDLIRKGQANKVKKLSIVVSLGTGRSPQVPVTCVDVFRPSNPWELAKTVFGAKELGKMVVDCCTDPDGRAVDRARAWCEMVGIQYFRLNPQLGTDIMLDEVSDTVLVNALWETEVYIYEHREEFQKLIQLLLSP
Assay: Mixed micelle-based
Assay type: biochemical

[1] = XI(50) compared with inhibitor 2

Structure (SMILES) | times less potent on GVIA iPLA2 than inhibitor 2 [1] [times] | further results
O=C(CCCCc1ccccc1)C(F)(F)C(F)(F)F [compound 2, 1,1,1,2,2-pentafluoro-7-phenylheptan-3-one] |  | inhibition at 0.091 mole fraction (read-out: GVIA iPLA2 % Inhibition): 99.4 ± 0.1%
O=C(/C=C/C=C/c1ccccc1)C(F)(F)C(F)(F)F [compound 10, (4E,6E)-1,1,1,2,2-Pentafluoro-7-phenylhepta-4,6-dien-3-one] | 22 | 
O=C(CCCCc1ccc2ccccc2c1)C(F)(F)F [12g, 1,1,1-Trifluoro-6-(naphthalen-2-yl)hexan-2-one] |  | times higher inhibition of GVIA iPLA2 than inhibitor 2 [1]: 7 times
O=C(CCCOc1ccccc1)C(F)(F)C(F)(F)F [12a, 1,1,1,2,2-Pentafluoro-6-phenoxyhexan-3-one] | 2.5 | 
